Laboratory results reported in US20250333406A1, “SULFONYL CYCLIC DERIVATIVES, AND COMPOSITIONS AND METHODS THEREOF” (Lysoway Therapeutics, Inc., priority 2023, published 2025).

System: TFEB
Experiment: TFEB Nuclear Translocation Assay
Type: cell-based
Conditions: read-out: EC50 of TFEB activation

EC50 | Structure (SMILES)
≤ 1000 nM | CC(C)S(=O)(=O)c1ccc(S(=O)(=O)n2nc(N3CCN(C(=O)C(F)(F)F)CC34CC4)c3c(Cl)cccc32)cc1 [Compound 55, 1-[4-[4-chloro-1-(4-isopropylsulfonylphenyl)sulfonyl-indazol-3-yl]-4,7-diazaspiro [2.5]octan-7-yl]-2,2,2-trifluoro-ethanone]
≤ 1000 nM | CC(C)S(=O)(=O)c1ccc(S(=O)(=O)n2nc(N3CCN(C(=O)C4CC4)CC34CC4)c3c(Cl)cccc32)cc1 [Compound 57, [4-[4-chloro-1-(4-isopropylsulfonylphenyl)sulfonyl-indazol-3-yl]-4,7-diazaspiro[2.5]octan-7-yl]-cyclopropyl-methanone]
≤ 1000 nM | CC(C)S(=N)(=O)c1ccc(S(=O)(=O)n2nc(N3CCN(c4ncc(F)cn4)CC34CC4)c3c(Cl)cccc32)cc1 (stereo not drawn) [Compound 58, [4-[4-chloro-3-[7-(5-fluoropyrimidin-2-yl)-4,7-diazaspiro [2.5]octan-4-yl]indazol-1-yl]sulfonylphenyl]-imino-isopropyl-oxo-λ6-sulfane]
≤ 1000 nM | CC(C)S(=O)(=O)n1ccc(S(=O)(=O)n2nc(N3CCN(CC(F)(F)F)CC34CC4)c3c(Cl)cc(F)cc32)c1 [Compound 59, 4-chloro-6-fluoro-1-(1-isopropylsulfonylpyrrol-3-yl)sulfonyl-3-[7-(2,2,2-trifluoroethyl)-4,7-diazaspiro[2.5]octan-4-yl]indazole]
≤ 1000 nM | CC(C)S(=O)(=O)c1ccc(S(=O)(=O)n2nc(N3CCN(c4ncc(F)cn4)C[C@@H]3C3CC3)c3c(Cl)cccc32)cc1 [Compound 60, (S)-4-chloro-3-(2-cyclopropyl-4-(5-fluoropyrimidin-2-yl)piperazin-1-yl)-1-((4-(isopropylsulfonyl)phenyl)sulfonyl)-1H-indazole]
≤ 1000 nM | CC(C)S(=O)(=O)c1ccc(S(=O)(=O)n2nc(N3CCCCC3C3CC3)c3c(Cl)cccc32)cc1 (stereo not drawn) [Compound 63, 4-chloro-3-(2-cyclopropyl-1-piperidyl)-1-(4-isopropylsulfonylphenyl) sulfonyl-indazole]
≤ 1000 nM | [2H]c1c([2H])c(S(=O)(=O)n2nc(N3CCN(c4ncc(F)cn4)CC34CC4)c3c(Cl)cccc32)c([2H])c([2H])c1S(=O)(=O)C(C)C [Compound 64, 4-chloro-3-[7-(5-fluoropyrimidin-2-yl)-4,7-diazaspiro [2.5]octan-4-yl]-1-(2,3,5,6-tetradeuterio-4-isopropylsulfonyl-phenyl) sulfonyl-indazole]
≤ 1000 nM | CC(C)S(=O)(=O)c1ccc(S(=O)(=O)n2nc(N3CCN(c4ncccn4)CC34CC4)c3c(Cl)cccc32)cc1 [Compound 65, 4-chloro-1-(4-isopropylsulfonylphenyl) sulfonyl-3-(7-pyrimidin-2-yl-4,7-diazaspiro[2.5]octan-4-yl) indazole]
≤ 1000 nM | CC(C)S(=O)(=O)c1ccc(S(=O)(=O)n2nc(N3CCCCC3C(F)(F)F)c3c(Cl)cccc32)cc1 (stereo not drawn) [Compound 66, 4-chloro-1-(4-isopropylsulfonylphenyl)sulfonyl-3-[2-(trifluoromethyl)-1-piperidyl]indazole]
≤ 1000 nM | CC(C)S(=O)(=O)c1ccc(S(=O)(=O)n2nc(N3CCN(c4ncc(F)cn4)CC3C(F)(F)F)c3c(Cl)cccc32)cc1 (stereo not drawn) [Compound 67, 4-chloro-3-[4-(5-fluoropyrimidin-2-yl)-2-(trifluoromethyl)piperazin-1-yl]-1-(4-isopropylsulfonylphenyl) sulfonyl-indazole]
≤ 1000 nM | CC(C)S(=O)(=O)c1ccc(S(=O)(=O)n2nc(N3CCN(c4ncc(F)cn4)C[C@@H]3C(F)(F)F)c3c(Cl)cccc32)cc1 [Compound 68, 4-chloro-3-[(2R)-4-(5-fluoropyrimidin-2-yl)-2-(trifluoromethyl)piperazin-1-yl]-1-(4-isopropylsulfonylphenyl) sulfonyl-indazole]
≤ 1000 nM | CC(C)S(=O)(=O)c1ccc(S(=O)(=O)n2nc(N3CCN(C(=O)C(F)(F)F)C[C@@H]3C(F)(F)F)c3c(Cl)cccc32)cc1 [Compound 70, 1-[(3R)-4-[4-chloro-1-(4-isopropylsulfonylphenyl)sulfonyl-indazol-3-yl]-3-(trifluoromethyl)piperazin-1-yl]-2,2,2-trifluoro-ethanone]
≤ 1000 nM | CC(C)S(=O)(=O)c1ccc(S(=O)(=O)n2nc(N3CCN(c4ncc(F)cn4)C[C@@H]3C(F)(F)F)c3c(F)cccc32)cc1 [Compound 72, 4-fluoro-3-[(2R)-4-(5-fluoropyrimidin-2-yl)-2-(trifluoromethyl)piperazin-1-yl]-1-(4-isopropylsulfonylphenyl)sulfonyl-indazole]
≤ 1000 nM | CC(C)S(=O)(=O)c1ccc(S(=O)(=O)n2nc(N3CCN(C(=O)C(F)F)CC3C(F)(F)F)c3c(Cl)cccc32)cc1 (stereo not drawn) [Compound 74, 1-[4-[4-chloro-1-(4-isopropylsulfonylphenyl)sulfonyl-indazol-3-yl]-3-(trifluoromethyl)piperazin-1-yl]-2,2-difluoro-ethanone]
≤ 1000 nM | CC(C)S(=O)(=O)c1ccc(S(=O)(=O)n2nc(N3CCN(CC(F)(F)F)CC3C(F)(F)F)c3c(Cl)cccc32)cc1 (stereo not drawn) [Compound 75, 4-chloro-1-(4-isopropylsulfonylphenyl)sulfonyl-3-[4-(2,2,2-trifluoroethyl)-2-(trifluoromethyl)piperazin-1-yl]indazole]
≤ 1000 nM | O=C(N1CCN(c2nn(S(=O)(=O)c3ccc(C(F)F)cc3)c3cccc(Cl)c23)C(C(F)(F)F)C1)C(F)(F)F (stereo not drawn) [Compound 76, 1-[4-[4-chloro-1-[4-(difluoromethyl)phenyl]sulfonyl-indazol-3-yl]-3-(trifluoromethyl)piperazin-1-yl]-2,2,2-trifluoro-ethanone]
≤ 1000 nM | O=S(=O)(c1ccc(C(F)F)cc1)n1nc(N2CCN(c3ncc(F)cn3)CC2C(F)(F)F)c2c(Cl)cccc21 (stereo not drawn) [Compound 77, 4-chloro-1-[4-(difluoromethyl)phenyl]sulfonyl-3-[4-(5-fluoropyrimidin-2-yl)-2-(trifluoromethyl)piperazin-1-yl]indazole]
≤ 1000 nM | O=S(=O)(c1ccc(C(F)F)cc1)n1nc(N2CCN(c3ncc(F)cn3)CC23CC3)c2c(Cl)cccc21 [Compound 78, 4-chloro-1-[4-(difluoromethyl)phenyl]sulfonyl-3-[7-(5-fluoropyrimidin-2-yl)-4,7-diazaspiro [2.5]octan-4-yl]indazole]
≤ 1000 nM | CC(C)S(=O)(=O)c1ccc(S(=O)(=O)n2nc(N3CCC(Cl)=CC3C(F)(F)F)c3c(Cl)cccc32)cc1 (stereo not drawn) [Compound 79, 4-chloro-3-[4-chloro-6-(trifluoromethyl)-3,6-dihydro-2H-pyridin-1-yl]-1-(4-isopropylsulfonylphenyl) sulfonyl-indazole]
≤ 1000 nM | CC(C)S(=O)(=O)c1ccc(S(=O)(=O)n2nc(N3CCC(Cl)=C[C@@H]3C(F)(F)F)c3c(Cl)cccc32)cc1 [Compound 80, 4-chloro-3-[(6R)-4-chloro-6-(trifluoromethyl)-3,6-dihydro-2H-pyridin-1-yl]-1-(4-isopropylsulfonylphenyl)sulfonyl-indazole]
≤ 1000 nM | CC(C)S(=O)(=O)c1ccc(S(=O)(=O)n2nc(N3CCC(Cl)=C[C@H]3C(F)(F)F)c3c(Cl)cccc32)cc1 [Compound 81, 4-chloro-3-[(6S)-4-chloro-6-(trifluoromethyl)-3,6-dihydro-2H-pyridin-1-yl]-1-(4-isopropylsulfonylphenyl)sulfonyl-indazole]
≤ 1000 nM | CC(C)S(=O)(=O)c1ccc(S(=O)(=O)n2nc(N3CC=C(Cl)C[C@@H]3C(F)(F)F)c3c(Cl)cccc32)cc1 [Compound 82, 4-chloro-3-[(2R)-4-chloro-2-(trifluoromethyl)-3,6-dihydro-2H-pyridin-1-yl]-1-(4-isopropylsulfonylphenyl)sulfonyl-indazole]
≤ 1000 nM | CC(C)S(=O)(=O)c1ccc(S(=O)(=O)n2nc(N3CCC(F)(F)CC3C(F)(F)F)c3c(Cl)cccc32)cc1 (stereo not drawn) [Compound 85, 4-chloro-3-[4,4-difluoro-2-(trifluoromethyl)-1-piperidyl]-1-(4-isopropylsulfonylphenyl) sulfonyl-indazole]
≥ 10000 nM | CC(F)(F)c1ccc(S(=O)(=O)n2nc(N3CCC4(CCO4)CC34CC4)c3c(Cl)cccc32)cc1 (stereo not drawn) [Compound 88, 11-[4-chloro-1-[4-(1,1-difluoroethyl)phenyl]sulfonyl-indazol-3-yl]-8-oxa-11-azadispiro [2.1.35.33]undecane]
≤ 1000 nM | O=S(=O)(c1ccc(C2(F)COC2)cc1)n1nc(N2CCN(c3ncc(F)cn3)CC23CC3)c2c(Cl)cccc21 [Compound 89, 4-chloro-1-[4-(3-fluorooxetan-3-yl)phenyl]sulfonyl-3-[7-(5-fluoropyrimidin-2-yl)-4,7-diazaspiro [2.5]octan-4-yl]indazole]

Structure (SMILES) | EC50
CC(=O)N1CCN(c2nn(S(=O)(=O)c3ccc(S(=O)(=O)C(C)C)cc3)c3cccc(Cl)c23)C2(CC2)C1 [Compound 56, 1-[4-[4-chloro-1-(4-isopropylsulfonylphenyl)sulfonyl-indazol-3-yl]-4,7-diazaspiro[2.5]octan-7-yl]ethanone] | ≤ 1000 nM
CC(C)S(=O)(=O)c1ccc(S(=O)(=O)n2nc(N3CCN(c4ncc(F)cn4)CC34CC4)c3c(Cl)cccc32)cc1F [Compound 62, 4-chloro-1-(3-fluoro-4-isopropylsulfonyl-phenyl) sulfonyl-3-[7-(5-fluoropyrimidin-2-yl)-4,7-diazaspiro [2.5]octan-4-yl]indazole] | ≤ 1000 nM
CC(C)S(=O)(=O)c1ccc(S(=O)(=O)n2nc(N3CCC(=O)CC3C(F)(F)F)c3c(Cl)cccc32)cc1 (stereo not drawn) [Compound 84, 1-[4-chloro-1-(4-isopropylsulfonylphenyl)sulfonyl-indazol-3-yl]-2-(trifluoromethyl)piperidin-4-one] | ≤ 1000 nM
CC(C)S(=O)(=O)c1ccc(S(=O)(=O)n2nc(N3CCC(OC(F)F)CC3C(F)(F)F)c3c(Cl)cccc32)cc1 (stereo not drawn) [Compound 86, 4-chloro-3-[4-(difluoromethoxy)-2-(trifluoromethyl)-1-piperidyl]-1-(4-isopropylsulfonylphenyl) sulfonyl-indazole] | ≤ 1000 nM
CC(C)S(=O)(=O)c1ccc(S(=O)(=O)n2nc(N3CCC(OC(F)F)CC34CC4)c3c(Cl)cccc32)cc1 (stereo not drawn) [Compound 87, 4-chloro-3-[7-(difluoromethoxy)-4-azaspiro [2.5]octan-4-yl]-1-(4-isopropylsulfonylphenyl) sulfonyl-indazole] | ≤ 1000 nM
